In US7745477B2, “Heteroaryl and benzyl amide compounds” (Hoffman-La Roche Inc., priority 2006, dated 2010) one finds IC50 data, which are given here for 3 compounds.

The target of this test is T1, cholesteryl ester transfer protein (CETP) (Homo sapiens, UniProt P11597).
T1 construct: the source of CETP was human lipoprotein-deprived serum (LPDS); from tissue; host or cells: human lipoprotein-deprived serum (LPDS)
T1 sequence (P11597 18-493): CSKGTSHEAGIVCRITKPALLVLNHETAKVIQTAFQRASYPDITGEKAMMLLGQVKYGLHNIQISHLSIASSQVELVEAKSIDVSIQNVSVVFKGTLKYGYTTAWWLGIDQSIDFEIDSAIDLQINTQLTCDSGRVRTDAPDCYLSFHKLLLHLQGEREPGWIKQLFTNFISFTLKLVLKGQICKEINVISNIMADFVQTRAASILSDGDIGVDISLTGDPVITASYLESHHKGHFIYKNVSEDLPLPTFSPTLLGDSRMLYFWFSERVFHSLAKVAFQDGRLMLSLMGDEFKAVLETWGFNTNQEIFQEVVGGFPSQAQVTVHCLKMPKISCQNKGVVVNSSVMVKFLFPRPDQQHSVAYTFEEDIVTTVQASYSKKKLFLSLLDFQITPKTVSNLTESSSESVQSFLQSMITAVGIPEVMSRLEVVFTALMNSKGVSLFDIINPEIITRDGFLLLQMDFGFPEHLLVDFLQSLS
The experiment in a line: CETP activity SPA assay in the presence of plasma (source of CETP: human lipoprotein-deprived serum, LPDS). The test is classed as biochemical. The following applies: CETP from human lipoprotein-deprived serum (LPDS); transfer of radiolabeled cholesteryl ester from HDL donor to biotin-labeled LDL acceptor particles. Here is the method: Activity of CETP inhibitors was determined using a buffer assay system. Partially purified CETP transferred radiolabeled cholesteryl ester from HDL donor particles to biotin-labeled LDL acceptor particles. The reaction was stopped by addition of streptavidin-coupled scintillation proximity assay (SPA) beads. These beads captured the biotinylated acceptor particles and transferred radioactivity was measured. The assay system was purchased and performed according to manufacturer's recommendations (Amersham Biosciences). Inhibitory activity of compounds was determined as percentage of positive control activity containing CETP together with donor and acceptor particles. Serial dilution of compounds was performed in order to determine the IC50 values.
Activity of the compounds was subsequently measured in the presence of plasma using the same assay as described above except that the source of CETP was human lipoprotein-deprived serum (LPDS). Inhibitory activity of compounds was determined as percentage of positive control activity containing all the assay components except compound. Serial dilution of compounds was performed in order to determine the IC50 values.
On to `CC(C)(C)c1ccc(CN(CCc2ccc(Cl)c(Cl)c2)C(=O)c2cnccc2Cl)cc1` [Compound B3, N-(4-tert-Butyl-benzyl)-4-chloro-N-[2-(3,4-dichloro-phenyl)-ethyl]-nicotinamide], for which the IC50 amounted to 66800 nM.

`O=C(c1cc(Cl)cc(Cl)c1)N(CCc1ccc(Cl)cc1)Cc1ccc(C(F)(C(F)(F)F)C(F)(F)F)cc1` [Compound B104, 3,5-Dichloro-N-[2-(4-chloro-phenyl)-ethyl]-N-[4-(1,2,2,2-tetrafluoro-1-trifluoromethyl-ethyl)-benzyl]-benzamide]: the IC50 is 1250 nM.

Turning to `CCC(C)(C)c1ccc(CN(CCc2ccc(Cl)cc2)C(=O)c2cc(Cl)cc(Cl)c2)cc1` [Compound B108, 3,5-Dichloro-N-[2-(4-chloro-phenyl)-ethyl]-N-[4-(1,1-dimethyl-propyl)-benzyl]-benzamide], the IC50 amounted to 409 nM.
